Measured values as given in ChEMBL document CHEMBL1201862, “PubChem BioAssay data set” (2004).
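Results reflect a 48-hour exposure of cells in 96-well plates to compound at five concentrations. GI50: concentration for 50% inhibition of growth.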 Calls of active or inactive are those of the source. Cut-off read from the data, not from the text of the source: active = GI50 up to about 1.1 µM and inactive = higher. Square brackets hold non-standard residues; d marks the D form. Residues, ends and D or L forms follow the SMILES beside them. Peptide text beside a SMILES is read from it. * marks the point of attachment. X26 = COC1=CC(=O)N(C(=O)[C@@H](O*)C(C)C)[C@H]1Cc1ccccc1; NMeL = CN[C@@H](CC(C)C)C(=O)O; Hexanoyl = CCCCCC(=O)*

Assays:
Assay in all cases: inhibition of tumour cell growth, NCI panel, 48 h
SK-MEL-28 = tested on: SK-MEL-28
UACC-257 = tested on: UACC-257
TK-10 = tested on: TK-10
HCT-116 = tested on: HCT-116
OVCAR-8 = tested on: OVCAR-8
SR = tested on: SR
SN12C = tested on: SN12C
CAKI-1 = tested on: CAKI-1
NCI-H460 = tested on: NCI-H460
MDA-N = tested on: MDA-N
HCC 2998 = tested on: HCC 2998
U-251 = tested on: U-251
SNB-75 = tested on: SNB-75
UO-31 = tested on: UO-31
NCI-H23 = tested on: NCI-H23
SF-539 = tested on: SF-539
RPMI-8226 = tested on: RPMI-8226
786-0 = tested on: 786-0
SK-MEL-5 = tested on: SK-MEL-5
A498 = tested on: A498

Measured: GI50

CCN(CC)CCCC(C)Nc1ccnc(/C=C/c2ccc(Cl)cc2)c1 (stereo unspecified)
inactive: SK-MEL-28 1.7 µM | UACC-257 2.02 µM | TK-10 2.38 µM | HCT-116 1.72 µM | OVCAR-8 3.43 µM | SR 2.3 µM | SN12C 2.07 µM | CAKI-1 2.29 µM | NCI-H460 2.69 µM | MDA-N 1.83 µM | HCC 2998 1.95 µM | U-251 1.66 µM | SNB-75 1.77 µM | UO-31 1.52 µM | NCI-H23 10.1 µM | SF-539 1.67 µM | RPMI-8226 1.72 µM | 786-0 1.41 µM | SK-MEL-5 3.23 µM

C=C1C(=O)O[C@@H]2[C@@H]3O[C@@H](C[C@@H]13)[C@](C)(O)CC/C=C(\C)CCC[C@@H]2C
inactive: SK-MEL-28 15.8 µM | UACC-257 12.3 µM | TK-10 14.4 µM | HCT-116 8.13 µM | OVCAR-8 6.7 µM | SN12C 12 µM | CAKI-1 13 µM | NCI-H460 14.1 µM | MDA-N 4.75 µM | HCC 2998 17.7 µM | U-251 10.5 µM | SNB-75 11.8 µM | UO-31 10.8 µM | NCI-H23 13.3 µM | A498 13.2 µM | SF-539 10.5 µM | RPMI-8226 2.82 µM | 786-0 5.42 µM | SK-MEL-5 16.4 µM

CCCCCC(=O)N[C@H](C(=O)N[C@H](C(=O)N(C)[C@@H](CC(C)C)C(=O)N1CCC[C@H]1C(=O)N1CCC[C@H]1C(=O)O[C@H](C(=O)N1C(=O)C=C(OC)[C@@H]1Cc1ccccc1)C(C)C)C(C)C)C(C)C (Hexanoyl-VV[NMeL]PP-X26)
inactive: SK-MEL-28 > 100 µM | UACC-257 45.3 µM | TK-10 > 100 µM | HCT-116 54.7 µM | OVCAR-8 > 100 µM | SN12C 35.6 µM | CAKI-1 74.6 µM | NCI-H460 > 100 µM | MDA-N 28.3 µM | HCC 2998 > 74.3 µM | U-251 > 91.6 µM | SNB-75 19.5 µM | NCI-H23 21.2 µM | A498 51.5 µM | SF-539 > 59.2 µM | RPMI-8226 2.74 µM | 786-0 > 91 µM

CC1(C)OC2[C@@H](CO[C@@]3([C@H]4OC(C)(C)O[C@@H]4CO)OC(C)(C)O[C@@H]23)O1 (stereo partly specified)
inactive: SK-MEL-28 > 100 µM | TK-10 > 100 µM | HCT-116 > 100 µM | OVCAR-8 > 100 µM | SR > 100 µM | SN12C > 100 µM | NCI-H460 > 100 µM | MDA-N > 100 µM | HCC 2998 > 100 µM | U-251 > 100 µM | SNB-75 > 100 µM | UO-31 > 100 µM | NCI-H23 > 100 µM | RPMI-8226 > 100 µM | 786-0 > 100 µM | SK-MEL-5 > 100 µM

CCC(C)C(NC(=O)C(CCCCN)NC(=O)C(NC(=O)C(CCC(N)=O)NC(=O)C(N)CCCNC(=N)N)C(C)CC)C(=O)NC(Cc1c[nH]c2ccccc12)C(=O)NC(Cc1ccccc1)C(=O)NC(CCC(N)=O)C(=O)NC(CC(N)=O)C(=O)NC(CCCNC(=N)N)C(=O)NC(CCCNC(=N)N)C(=O)NC(CCSC)C(=O)NC(CCCCN)C(=O)NC(Cc1c[nH]c2ccccc12)C(=O)NC(CCCCN)C(=O)NC(CCCCN)C(=O)N1CCCC1C(=O)NC(C)C(=O)NC(CCCCN)C(=O)NC(CCCNC(=N)N)C(=O)NC(CCCCN)C(=O)NC(CC(C)C)C(=O)NC(Cc1ccccc1)C(=O)NCC(=O)O (stereo unspecified) (H-RQIKIWFQNRRMKWKKPAKRKLFG-OH; configuration not given here)
inactive: SK-MEL-28 > 25 µM | UACC-257 21.9 µM | TK-10 > 25 µM | HCT-116 16.3 µM | OVCAR-8 > 25 µM | SR > 25 µM | SN12C > 25 µM | CAKI-1 > 25 µM | NCI-H460 24.7 µM | MDA-N > 25 µM | HCC 2998 > 25 µM | U-251 17 µM | SNB-75 > 25 µM | UO-31 > 25 µM | NCI-H23 > 25 µM | RPMI-8226 5.93 µM | 786-0 17.5 µM | SK-MEL-5 16.5 µM

CCOC(=O)c1sc2nc(SC)nc(Nc3ccc4c(c3)OCCO4)c2c1N
inactive: SK-MEL-28 > 100 µM | UACC-257 21.7 µM | TK-10 15.2 µM | HCT-116 6.3 µM | OVCAR-8 5.12 µM | SR 20.5 µM | SN12C 8.49 µM | CAKI-1 22.9 µM | NCI-H460 17.5 µM | MDA-N 10.4 µM | HCC 2998 25.7 µM | U-251 5.87 µM | UO-31 15 µM | NCI-H23 14.2 µM | A498 11.9 µM | SF-539 7.52 µM | RPMI-8226 12.6 µM | SK-MEL-5 7.53 µM

Fc1ccc(-c2sc(-c3ccsc3)cc2Cc2ccsc2)cc1
inactive: SK-MEL-28 > 10 µM | UACC-257 > 10 µM | TK-10 > 10 µM | OVCAR-8 > 10 µM | SR > 10 µM | SN12C > 10 µM | CAKI-1 > 10 µM | MDA-N > 10 µM | HCC 2998 > 10 µM | SNB-75 > 10 µM | NCI-H23 > 10 µM | RPMI-8226 > 10 µM | 786-0 > 10 µM | SK-MEL-5 > 10 µM

O=CNc1ccc(S(=O)(=O)c2ccc(NC=O)cc2)cc1
inactive: SK-MEL-28 > 100 µM | UACC-257 > 100 µM | TK-10 > 100 µM | HCT-116 > 100 µM | OVCAR-8 > 100 µM | SR > 100 µM | SN12C > 100 µM | CAKI-1 > 100 µM | NCI-H460 > 100 µM | MDA-N > 100 µM | HCC 2998 > 100 µM | U-251 > 100 µM | SNB-75 29.7 µM | UO-31 > 100 µM | NCI-H23 > 100 µM | SF-539 > 100 µM | RPMI-8226 > 100 µM | 786-0 > 100 µM | SK-MEL-5 > 100 µM

COC(=O)C(O)P(=O)(OC)OC (stereo unspecified)
inactive: SK-MEL-28 > 100 µM | UACC-257 > 100 µM | HCT-116 > 100 µM | OVCAR-8 > 100 µM | SR > 100 µM | SN12C > 100 µM | CAKI-1 > 100 µM | MDA-N > 100 µM | U-251 > 100 µM | UO-31 > 100 µM | NCI-H23 > 100 µM | A498 > 100 µM | RPMI-8226 > 100 µM | 786-0 > 100 µM | SK-MEL-5 > 100 µM

CSC(SC)=C(C(=O)O)P(=O)(O)O
inactive: SK-MEL-28 > 100 µM | UACC-257 > 100 µM | TK-10 > 100 µM | HCT-116 > 100 µM | OVCAR-8 > 100 µM | SR > 100 µM | SN12C > 100 µM | CAKI-1 > 100 µM | NCI-H460 > 100 µM | MDA-N > 100 µM | HCC 2998 > 100 µM | NCI-H23 > 100 µM | A498 > 100 µM | SF-539 > 100 µM | 786-0 > 100 µM | SK-MEL-5 > 100 µM

CCCCCCCCCCCCCCCCOCC(Cl)COP(=O)(O)OP(=O)(O)OCC1OC(n2cc(C)c(=O)[nH]c2=O)CC1O (stereo unspecified)
inactive: SK-MEL-28 55.2 µM | UACC-257 > 100 µM | TK-10 > 100 µM | HCT-116 > 100 µM | OVCAR-8 75.9 µM | SN12C 70 µM | CAKI-1 > 100 µM | NCI-H460 > 100 µM | MDA-N 52.8 µM | HCC 2998 > 100 µM | U-251 > 100 µM | SNB-75 26.7 µM | UO-31 > 100 µM | NCI-H23 > 100 µM | A498 > 100 µM | SF-539 72.9 µM | RPMI-8226 > 100 µM | 786-0 > 100 µM | SK-MEL-5 > 100 µM

Cc1ccc2c(c1C)CC1(Cc3c(C)ccc(C)c3C1=O)C2=O (stereo unspecified)
inactive: SK-MEL-28 > 100 µM | UACC-257 > 100 µM | TK-10 > 100 µM | HCT-116 > 100 µM | OVCAR-8 > 100 µM | SN12C > 100 µM | CAKI-1 > 100 µM | NCI-H460 > 100 µM | MDA-N > 100 µM | HCC 2998 > 100 µM | U-251 > 100 µM | SNB-75 > 100 µM | UO-31 > 100 µM | NCI-H23 > 100 µM | A498 > 100 µM | SF-539 > 100 µM | RPMI-8226 > 100 µM | 786-0 > 100 µM | SK-MEL-5 > 100 µM

COc1ccc(C=C2C(C)=NN(c3cccc(Cl)c3)C23C(Cl)C(=O)N3c2nc3ccccc3s2)cc1 (stereo unspecified)
inactive: SK-MEL-28 9.25 µM | UACC-257 24.9 µM | TK-10 26.8 µM | HCT-116 15.5 µM | OVCAR-8 18.9 µM | SR 21.6 µM | CAKI-1 23.2 µM | NCI-H460 24 µM | MDA-N 19.9 µM | HCC 2998 3 µM | U-251 14.6 µM | UO-31 16.3 µM | NCI-H23 15 µM | A498 18.5 µM | SF-539 30.5 µM | RPMI-8226 2.82 µM | 786-0 16 µM | SK-MEL-5 15.1 µM

O=C1CSC(c2cccc([N+](=O)[O-])c2)N1c1ccc(-n2c(-c3ccccc3)nc3ccccc3c2=O)cc1 (stereo unspecified)
inactive: SK-MEL-28 > 100 µM | UACC-257 > 100 µM | TK-10 > 100 µM | HCT-116 > 100 µM | OVCAR-8 > 100 µM | SR 84.3 µM | SN12C > 100 µM | CAKI-1 > 100 µM | NCI-H460 > 100 µM | MDA-N > 100 µM | HCC 2998 63.7 µM | U-251 > 100 µM | UO-31 3.76 µM | NCI-H23 > 100 µM | A498 > 100 µM | SF-539 > 100 µM | RPMI-8226 > 100 µM | 786-0 > 100 µM | SK-MEL-5 > 100 µM
